Results on five molecules are retold here after PMC11359531, “Establishment of Dissolution Test Method for Multi-Components in Traditional Chinese Medicine Preparations Based on In Vitro–In Vivo Correlation” (Pharmaceuticals, 2024).

Data set [1] is described as follows: Dissolution test of Q-markers in YZTs, paddle method, and fitting of dissolution profiles. Type of data set: physicochemical. Particulars: for Best-fitted dissolution model, Functions: YZTs, 75 rpm. The method, then: The dissolution of five Q-markers in YZTs was evaluated using the paddle method in accordance with the Chinese Pharmacopoeia. […] The dissolution tests were conducted at a temperature of 37 ± 0.5 °C and a paddle speed of 75 rpm. Add 6 tablets to each dissolving cup, accompanied by 900 mL of dissolving solution, in 6 parallel aliquots, and samples of 3 mL were collected at 15, 30, 45, 60, 90, 120, 180, 240, and 360 min, respectively. Taking into account the gastric emptying time, the end time of dissolution measurement was 180 min when taking 0.1 M of HCl as dissolution medium. The dissolution medium was replenished after each sampling. The samples were filtered through 0.22 μm membrane and analyzed using the HPLC method described in Section 3.2. The chromatographic results were processed to calculate the concentration of each component at different time points, and the dissolution results were calculated using Equation (3) as follows:(3) D=(CnV1+V2∑i=1n−1Cn−1)×100%/M
Cn is the drug concentration at time point n; V1 is the volume of dissolution medium in the dissolution cup; V2 is the volume of the sample removed at each time point; M is the total drug content.
The Phoenix WinNonlin IVIVC Toolkit provides Hill, Weibull, and Makoid Banakar functions to fit the average dissolution of each component in each dissolved medium. The best-fitting model was selected according to the highest correlation coefficient (R) and the smallest Akaike information criterion (AIC) value in the fitting results.
Hill:(4) Fdiss,vitro=Finf×t^b/MDT^b+t^b
Weibull:(5) Fdiss,vitro=Finf×(1−exp[−t−tlag/MDT]^b)
Makoid Banakar:(6) Fdiss,vitro=Fmax×(t/Tmax)^b×exp[b×(1−t/Tmax)] for t≤T_max (7) Fdiss,vitro=Fmax for t>Tmax where Fdiss,vitro is the fitting fraction dissolved at time t, Finf is the fraction dissolved at time infinity (fixed as 1), MDT is the average dissolution time (hours), Fmax is the maximum in vitro dissolution value, tlag is the lag time, Tmax is the time corresponding to the maximum in vitro dissolution value, and b is the shape parameters.

Data set [2] can be described thus: Stability of Q-markers in plasma. On the set-up: species or system dog. The settings on record: n = 6. The method, then:
The standard solutions of tetrahydropalmatine, corydaline, protopin, α-allocryptopine, and byakangelicin were prepared by dissolving them in acetonitrile to obtain a mixed standard stock solution, which was further diluted with acetonitrile to prepare a series of different concentration gradient mixed standard solutions. An internal standard solution of 25 ng/mL was prepared from betamethasone solution (500 μg/mL) diluted with acetonitrile. Blank dog blood was collected through intravenous blood sampling, and plasma was obtained by centrifugation. To prepare the standard plasma sample, 25 μL of the mixed standard solution was added to 100 μL of blank plasma, and 400 μL of acetonitrile was added and vortexed for protein precipitation. The supernatant was acquired by centrifugation and blown dry with nitrogen. Then, 100 μL of acetonitrile was added to the dried supernatant, and the resulting solution was mixed to gain the standard plasma sample. Different mixed standard solution including a serial of concentrations of tetrahydropalmatine: 0.625–25 ng/mL, corydaline: 0.625–25 ng/mL, protopin: 0.1–4 ng/mL, α-allocryptopine: 0.1–4 ng/mL, byakangelicin: 18.75–750 ng/mL were applied to prepare standard plasma sample and quality control (QC) samples of plasma as follows: 1.25, 5, and 20 ng/mL for tetrahydropalmatine and corydaline, […], and 37.5, 150, and 600 ng/mL for byakangelicin.

A short description of data set [3]: Solubility of Q-markers in dissolution media, dose number D0. Particulars: for solubility at 24 h: thermodynamic from solid.
Protocol: The solubility of the compounds was determined at physiologically relevant pH values (0.1 M of HCl, pH 1.2; acetate buffer, pH 4.5; and phosphate buffer, pH 6.8) as those in dissolution medium, by adding excess compounds to specific medium, vortexing for 30 s, and shaking for 24 h at 37 °C and 120 rpm using a constant temperature shaker. The supernatant was then diluted with an appropriate amount of methanol, and the concentration of each compound was determined using the HPLC method described in Section 3.2. The solubility was evaluated using the dose (D0) values [48], which describe the relationship between solubility and maximum dose strength according to Equation (1). […] (1) D0=M0/V0/CS
M0 was the highest dose of each component under single administration, it should be noted that since there is no sense of the maximum oral dose for the ingredients in herbal preparation, the content of each component in a single dose of the preparation is taken as the maximum administered dose.
Data set [4] in a line: External validation of IVIVC model with another brand of YZTs. Particulars: beagle, dog, blood, po.
Description: In order to further apply the identified in vivo correlated dissolution conditions to different batches of YZTs, another brand of YZTs was selected for external validation of the dissolution conditions and IVIVC model results. The dissolution data of different brands in the identified media were input into the established IVIVC model to obtain the predicted blood concentration–time curve and to compare the PE% between the predicted value and the actual value.
Data set [5] in a line: Unit impulse response (UIR) fitting of pharmacokinetic data. The settings on record: best-fitted UIR, Akaike model.
Description: The Phoenix WinNonlin IVIVC tool was utilized to evaluate the relationship between in vivo drug dissolution rate and blood drug concentration, which utilizes the Unit Impulse Response (UIR) function for this purpose. By using intravenous administration as the input for the unit impulse response, the influence of drug absorption can be eliminated. The obtained UIR function will be utilized for the deconvolution of pharmacokinetic data to obtain the curve of cumulative drug absorption over time [50]. (8) Y(t)=A×exp[Alpha×(t×Ka−tlag)] in which Y(t) is unit impulse response, A is the coefficient value, Alpha is the exponential value, Ka is the absorption rate constant, tlag is the lag time.
The mark [6] stands for this setting: 0.1 M HCl, 37 °C, pH 1.2, simulated gastric fluid.
Setting [7] is: acetate buffer, 37 °C, pH 4.5, aqueous buffer.
The mark [8] stands for this setting: phosphate buffer, 37 °C, pH 6.8, aqueous buffer.
The mark [9] stands for this setting: D0 = M0/V0/Cs, V0 = 250 mL, content of a single dose of YZTs.

Values after ≈ are worked out from the molar mass of the structure shown. Values joined by “and” are separate entries in the source; they are usually repeats but may differ in a detail not shown here. Identical values can stand only once.

As usually defined, the solubility is how much of the substance goes into solution per volume. A high value points to a readily soluble substance. What is called AUC is concentration integrated over time. In general, Cmax refers to the highest concentration seen after dosing. For the molecule `COc1cc2c(cc1OC)[C@@H]1Cc3ccc(OC)c(OC)c3CN1CC2` [Tetrahydropalmatine, tetrahydropalmatine], the “Best-fitted dissolution model, Functions” value in data set [1] (FaSSIF-V2) is “y(t) = 0.38 × (1 − exp[−(t/3.48)^1.91])”; in data set [1] (Phosphate buffer) it was “y(t) = 0.30 × (1 − exp[−(t/2.29)^2.34])”. Moreover, the Relative content in data set [2] (1.25 ng/mL, 6℃-6h) stood at 94.31%; in data set [2] (1.25 ng/mL, 20℃-24h), 100.16%; in data set [2] (1.25 ng/mL, Freeze-thaw thrice), 100.09%; in data set [2] (5 ng/mL, 6℃-6h) it was 99.79%; in data set [2] (5 ng/mL, 20℃-24h) it was 102.60%; in data set [2] (5 ng/mL, Freeze-thaw thrice) it was 102.53%. Besides, the Relative content in data set [2] (20 ng/mL, 6℃-6h) amounted to 97.35%; in data set [2] (20 ng/mL, 20℃-24h) it was 100.19%; in data set [2] (20 ng/mL, Freeze-thaw thrice), 100.12%. Further, the solubility at 24 h in data set [3] (setting [6]) is 655 ± 43.3 µg/mL (≈ 1840 µM); in data set [3] (setting [7]), 2670 ± 539 µg/mL (≈ 7500 µM); in data set [3] (setting [8]), 19.7 ± 1.87 µg/mL (≈ 55.4 µM); in data set [3] (water) it was 18.9 ± 1.57 µg/mL (≈ 53.1 µM). This molecule also had an AUC in data set [4] of 59.9 ng·h/mL. Moreover, in data set [4], the Cmax was 16.4 ng/mL.
As to protopine, the entries for the “Best-fitted dissolution model, Functions” value in data set [1] (0.1 M HCl), in data set [1] (FaSSGF) and in data set [1] (Phosphate buffer) were “y(t) = 0.70 × (1 − exp[−(t/1.10)^2.06])”, “y(t) = 0.82 × (1 − exp[−t^1.01])” and “y(t) = 0.62 × (1 − exp[−(t/1.50)^1.63])”, respectively. The Relative content worked out at 99.33% in data set [2] (0.2 ng/mL, 6℃-6h); 96.07% in data set [2] (0.2 ng/mL, 20℃-24h); 96.00% in data set [2] (0.2 ng/mL, Freeze-thaw thrice); 93.89% in data set [2] (0.5 ng/mL, 6℃-6h); 100.60% in data set [2] (0.5 ng/mL, 20℃-24h); 100.53% in data set [2] (0.5 ng/mL, Freeze-thaw thrice). Moreover, the Relative content in data set [2] (3.2 ng/mL, 6℃-6h) is on record as 103.43%; in data set [2] (3.2 ng/mL, 20℃-24h), 101.63%; in data set [2] (3.2 ng/mL, Freeze-thaw thrice), 101.56%.
For `COc1cc2c(cc1OC)[C@H]1[C@@H](C)c3ccc(OC)c(OC)c3CN1CC2` [Corydaline, corydaline], the “Best-fitted dissolution model, Functions” value in data set [1] (0.1 M HCl) is “y(t) = 0.79 × (1 − exp[−(t/1.06)^2.00])”; in data set [1] (Acetate buffer) it was “y(t) = 0.71 × (1 − exp[−(t/1.23)^2.04])”; in data set [1] (FaSSIF-V2), “y(t) = 0.15 × (1 − exp[−(t/3.14)^1.77])”; in data set [1] (Phosphate buffer), “y(t) = 0.25 × (1 − exp[−(t/1.94)^2.82])”. For the same molecule, the Relative content in data set [2] (1.25 ng/mL, 6℃-6h) worked out at 98.22%; in data set [2] (1.25 ng/mL, 20℃-24h), 98.02%; in data set [2] (1.25 ng/mL, Freeze-thaw thrice), 97.95%; in data set [2] (5 ng/mL, 6℃-6h), 93.89%; in data set [2] (5 ng/mL, 20℃-24h), 102.35%; in data set [2] (5 ng/mL, Freeze-thaw thrice), 102.28%. The Relative content in data set [2] (20 ng/mL, 6℃-6h) is given as 107.01%; in data set [2] (20 ng/mL, 20℃-24h), 100.80%; in data set [2] (20 ng/mL, Freeze-thaw thrice), 100.73%. Besides, the “UIR parameter A1, Estimate” value in data set [5] was 0.05 ng/mL. Also, the “UIR parameter Ka, Estimate” value in data set [5] was 1.46 h⁻¹. Further, the “UIR parameter Tlag, Estimate” value in data set [5] is recorded as 0.44 h. Further, the “UIR parameter alpha1, Estimate” value in data set [5] is 1.42 h⁻¹. For the same molecule, the solubility at 24 h was more than 2380 µg/mL in data set [3] (setting [6]), more than 2380 µg/mL in data set [3] (setting [7]), 2380 ± 348 µg/mL (≈ 6460 µM) in data set [3] (setting [8]) and 5.03 ± 0.85 µg/mL (≈ 13.6 µM) in data set [3] (water). The AUC in data set [4] is 34.3 ng·h/mL. The highest level in data set [4] (Cmax) was 12 ng/mL.
Turning to `COc1ccc2c(c1OC)CN(C)CCc1cc3c(cc1C(=O)C2)OCO3` [α-allocryptopine], the “Best-fitted dissolution model, Functions” value is “y(t) = 0.86 × (1 − exp[−(t/1.26)^1.97])” in data set [1] (Acetate buffer) and “y(t) = 0.60 × (1 − exp[−(t/1.29)^1.78])” in data set [1] (Phosphate buffer). In addition, the “released within 6 h” value in data set [1] (from YZTs, phosphate buffer and artificial intestinal fluid, paddle 75 rpm) is given as “less than 60%”. Besides, the Relative content in data set [2] (0.2 ng/mL, 6℃-6h) is reported as 91.78%; in data set [2] (0.2 ng/mL, 20℃-24h), 100.07%; in data set [2] (0.2 ng/mL, Freeze-thaw thrice), 100.00%; in data set [2] (0.5 ng/mL, 6℃-6h), 100.95%; in data set [2] (0.5 ng/mL, 20℃-24h), 101.06%; in data set [2] (0.5 ng/mL, Freeze-thaw thrice) it was 100.99%. The Relative content is given as 107.49% in data set [2] (3.2 ng/mL, 6℃-6h); 98.70% in data set [2] (3.2 ng/mL, 20℃-24h); 98.63% in data set [2] (3.2 ng/mL, Freeze-thaw thrice). Moreover, in data set [5], the “UIR parameter A1, Estimate” value was 0 ng/mL. The “UIR parameter Ka, Estimate” value in data set [5] is 5.65 h⁻¹. In addition, in data set [5], the “UIR parameter Tlag, Estimate” value was 0.67 h. For the same molecule, in data set [5], the “UIR parameter alpha1, Estimate” value is 1.13 h⁻¹. In addition, the solubility at 24 h in data set [3] (setting [6]) is 48.7 ± 4.08 µg/mL (≈ 132 µM); in data set [3] (setting [7]), 45.8 ± 2.56 µg/mL (≈ 124 µM); in data set [3] (setting [8]), 44.7 ± 2.17 µg/mL (≈ 121 µM); in data set [3] (water) it was 2380 ± 521 µg/mL (≈ 6430 µM). Further, the “D0, 0.1 M HCl” value in data set [3] (setting [9]) was 0.5441 and <1. The “D0, Acetate Buffer” value in data set [3] (setting [9]) is 0.5786 and <1. Besides, in data set [3] (setting [9]), the “D0, Phosphate Buffer” value was 0.5928 and <1. The same molecule gave an AUC in data set [4] of 2.04 ng·h/mL. Besides, in data set [4], the concentration peaked (Cmax) at 0.5 ng/mL.
On to `COc1c2ccoc2c(OC[C@@H](O)C(C)(C)O)c2oc(=O)ccc12` [Byakangelicin, byakangelicin], for which the released result in data set [1] (from YZTs, all other dissolution media than simulated gastric fluid and 0.1 M HCl, paddle 75 rpm) is listed as “less than 40%”. In addition, the Relative content amounted to 90.02% in data set [2] (37.5 ng/mL, 6℃-6h); 93.00% in data set [2] (37.5 ng/mL, 20℃-24h); 92.93% in data set [2] (37.5 ng/mL, Freeze-thaw thrice); 93.99% in data set [2] (150 ng/mL, 6℃-6h); 93.39% in data set [2] (150 ng/mL, 20℃-24h); 93.32% in data set [2] (150 ng/mL, Freeze-thaw thrice). Also, the Relative content in data set [2] (600 ng/mL, 6℃-6h) is reported as 88.54%; in data set [2] (600 ng/mL, 20℃-24h), 89.73%; in data set [2] (600 ng/mL, Freeze-thaw thrice), 89.66%. Also, in data set [5], the “UIR parameter A1, Estimate” value is 0.02 ng/mL. In addition, in data set [5], the “UIR parameter Ka, Estimate” value is 2.23 h⁻¹. Also, the “UIR parameter Tlag, Estimate” value in data set [5] is listed as 0.45 h. Further, in data set [5], the “UIR parameter alpha1, Estimate” value is 1.18 h⁻¹. Besides, the solubility at 24 h in data set [3] (setting [6]) is 2660 ± 56 µg/mL (≈ 7960 µM); in data set [3] (setting [7]), 1290 ± 87.4 µg/mL (≈ 3860 µM); in data set [3] (setting [8]), 7.63 ± 1.27 µg/mL (≈ 22.8 µM); in data set [3] (water) it was 35.9 ± 5.85 µg/mL (≈ 107 µM). The molecule further showed an AUC in data set [4] of 54.5 ng·h/mL. Besides, the Cmax in data set [4] came out at 29.6 ng/mL.
